The test system of one assay is HT-1080 cells. The experiment in a line: Lethality of commercially available CIL41/70 structural analogs. Format: cell-based. To be noted: Homo sapiens, tested once in technical triplicates. The method in brief: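 HT-1080 cells (1,000/well) dosed at seeding with twofold 12-point dilutions of lethal compounds. Viability read by Alamar Blue fluorescence (530/590 nm) after 6 h, normalized to media and vehicle wells. Analogs tested once, in technical triplicate.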

The test system of a further assay is GPX4 transcripts. The experiment in a line: Reverse-transcription quantitative PCR of GPX4 transcripts. Type of assay: cell-based. The note with it: 5 μM FIN56. How it is done: Trypsinized 0.2 to 1 million cells grown in six-well dishes, pelleted them, resuspended them in Buffer RLT (Qiagen), and homogenized them with QlAshredder (Qiagen). RNA was further extracted using the RNeasy Mini Kit (Qiagen). We converted 2 μg of extracted RNA from each sample into cDNA using TaqMan reverse-transcription reagents (Life Technologies). qPCR primers were designed to detect all splicing variants using Primer Express 2.0 (Applied Biosystems). The designed primers were confirmed to amplify only the designated gene transcripts using in silico PCR (see, e.g., http://genome.ucsc.edu/cgi-bin/hgPcr). For qPCR reactions, primers, cDNA, and Power SYBR Green PCR Master Mix (Applied Biosystems) were mixed, and quantitation was performed using a StepOnePlus real-time PCR system (Applied Biosystems). Experiments were done in biological triplicates.

The target in another assay is T1, truncated human SQS (Homo sapiens, UniProt P37268).
T1 construct: truncated human squalene synthase (SQS 31-370) in pET28a expression vector; made in house; host or cells: Escherichia coli BL21-Gold (DE3)
T1 sequence (P37268 31-370): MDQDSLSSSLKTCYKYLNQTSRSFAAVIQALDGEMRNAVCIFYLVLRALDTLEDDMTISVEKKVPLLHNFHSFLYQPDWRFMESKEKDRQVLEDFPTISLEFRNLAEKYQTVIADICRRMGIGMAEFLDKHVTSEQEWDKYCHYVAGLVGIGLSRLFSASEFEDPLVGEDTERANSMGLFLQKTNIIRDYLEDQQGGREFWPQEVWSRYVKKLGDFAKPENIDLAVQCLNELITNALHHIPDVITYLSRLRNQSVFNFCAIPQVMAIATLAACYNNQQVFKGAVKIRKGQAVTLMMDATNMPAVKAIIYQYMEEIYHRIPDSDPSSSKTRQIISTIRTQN
The experiment in a line: SQS competition assay with purified truncated SQS, FIN56 and active probe. Type of assay: binding. The note with it: pre-incubation with 100 μM FIN56 for two hours. As for the experimental part: Bacterial expression and purification of truncated human SQS for competition assay. The plasmid encoding the truncated human squalene synthase (SQS 31-370) in pET28a expression vector, kindly provided by Chia-I Liu and Andrew H. J. Wang (Academia Sinica, Taiwan), was confirmed by DNA sequencing (Gene Wiz, Inc.) and then used to transform Escherichia coli BL21-Gold (DE3) competent cells (Agilent Technologies). The cells with the construct were grown in LB media supplemented with 100 μg/mL […] at 37° C. until the OD600 reached 1. Protein expression was induced with 0.5 mM isopropyl β-D-thiogalactoside at 17° C. overnight (12-13 h). Cells were pelleted (4,000 g, 20 min, 4° C.) and lysed by sonication in SQS buffer (50 mM Tris, pH 7.4, 250 mM NaCl, 5 mM imidazole, 5 mM MgCl2, 1 mM TCEP). Cell lysate was then centrifuged at 15,000 g for 45 min at 4° C. The supernatant was loaded onto a chromatography column containing Ni Sepharose 6 Fast Flow beads (GE Life Sciences) equilibrated with SQS buffer. After two washes and one nonspecific wash of the beads, the bound SQS was eluted with 250 mM imidazole in the same buffer. The purity of eluted fractions was verified by SDS-PAGE as more than 90% pure. The fractions containing SQS were concentrated, flash-frozen, and stored at −80° C.
SQS competition assay with purified truncated SQS, FIN56, and active probe. […]

For the next assay, the system named is NCI60 cell line panel. The experiment in a line: Cell-line selectivity in the NCI60 cell line panel. Type of assay: cell-based. The source says:
Previously reported ferroptosis inducers either deplete glutathione (by inhibiting cystine uptake) or are covalent GPX4 inhibitors.

Values after ≈ are worked out from the molar mass of the structure shown.

For orientation: EC50 means the concentration needed to bring the measured effect to its halfway point. Read a high EC50 as weaker potency. With `N/C(=N\OC(=O)C12CC3CC(CC(C3)C1)C2)c1ccccc1` [CIL41], the EC50 in the assay on HT-1080 cells was 2.8 µg/mL (≈ 9.38 µM).

`O=S(=O)(NC1CCCCC1)c1ccc2c(c1)C(=NO)c1cc(S(=O)(=O)NC3CCCCC3)ccc1-2` [FIN56, N2,N7-dicyclohexyl-9-(hydroxyimino)-9H-fluorene-2,7-disulfonamide]: the GPX4 transcript level entry in the assay with GPX4 transcripts is given as “increased, rather than decreased”. For the same compound, the “competition of SQS binding to active affinity probe” value on truncated human SQS is “efficiently suppressed”. For the same compound, the “cell-line selectivity pattern in NCI60” value in the assay with NCI60 cell line panel is “more similar to other GPX4 inhibitors than to GSH-depleting compounds”.

Source of the values: US10947188B2, “Small molecule ferroptosis inducers” (THE TRUSTEES OF COLUMBIA UNIVERSITY IN THE CITY OF NEW YORK, priority 2016, dated 2021).
